Measured values as given in paper PMC7367873, “Dissecting the sequence determinants for dephosphorylation by the catalytic subunits of phosphatases PP1 and PP2A” (Nature Communications, 2020).

Tests used:
PP1c/PP2Ac = test: PP1c versus PP2Ac specificity of p-sites (pairwise comparison / hierarchical clustering of phosphoproteomic data); assay type: biochemical, human; details: for share of substrates specific to the phosphatase: hierarchical clustering; for number of specific sequences (cluster size): hierarchical clustering after one-way ANOVA
Protocol: (§1) For phosphoproteomics, HeLa Kyoto cells were incubated with 20 nM Calyculin A (CST, #9902) for 10–15 min. This time point was determined empirically to yield maximal phosphatase inhibition without cells showing pleiotropic effects. Subsequently, cells were placed on ice and washed twice with cold PBS and scraped in lysis buffer (100 mM NaCl, 10 mM Tris, 0.1% IGEPAL, 1 mM EDTA, 1 mM EGTA, 20 nM Calyculin A, 1x cOmplete Mini protease inhibitor cocktail (Sigma), 1 mM DTT, 1 mM MnCl2, pH 7.5). After 10 pushes through an injection needle (21 G, BD), lysate was cleared from the insoluble fraction by centrifugation (10 min, 10^4 rcf, 4 °C). Protein concentration was then determined by a Bradford Assay and equal amounts of 1 mg total protein were incubated with recombinant PP1c/PP2Ac or buffer at a final phosphatase concentration of 1 µM in a total volume of 200 µL for 1 h at 30 °C. Lysates were then immediately placed on ice. PhosStop […] (Roche) was added and proteins were denatured by adding urea to a final concentration of 8 M taking into account the volume increase. Samples were then snap-frozen in liquid nitrogen for storage and subsequent MS analysis.
Downstream analysis of the phosphoproteomic datasets was carried out using the software tool Perseus[66]. For analysis of phosphoproteomic experiments, row-wise, median-normalized data (see previous section) was linked to known regulatory sites by PhosphoSitePlus entries and categorical columns for treatments were assigned. Reverse peptides and potential contaminants were filtered. Next, categorical columns for biological functions and treatments were assigned. TMT reporter intensities were then transformed into log2. At this point, all data were then filtered for valid values in all three replicates of at least one condition. Next, the distribution of TMT reporter intensities was assessed visually by plotting count-based histogramms and in a multiscatter plot using the Pearson correlation as an estimate of reproducibility. Next, NA (=not available: missing) values were replaced by imputation from a normal distribution (width 0.3, down-shift 1.8, per column). The data quality was routinely assessed by two means: First, by plotting a histogram of peptide length vs. counts and visualization of imputed values to confirm a normal distribution of the data, and secondly by principal component analysis (default settings in Perseus) to judge the sample grouping.
For hierarchical clustering, the results of the one-way ANOVA were processed for two more steps in Perseus: first data were filtered for significant hits from the one-way ANOVA and then subjected to z-transformation. Hierarchical clustering images were produced using Euclidean distance, 300 clusters and 10 rounds of iteration.
Also all further data processing for protein enrichment and extraction of protein sequences in positions −5 to +5 relative to the p-sites of interest for subsequent motif analysis was performed using RStudio with R v3.3.2 using the packages tidyverse and BioStrings. In order to study the sequence specificity of PP1c and PP2Ac on the protein level, position specific probability matrices, representing the relative occurrence for each amino acid surrounding pSer/pThr were produced by extracting sequence information in positions −5 to +5 for all PP1c/PP2Ac-sensitive class I p-sites. Next, the count for each amino acid in each position was divided by the total of all counts for a certain position, resulting in relative abundance. […] Importantly, amino acids with less than 25 counts in PP1-sensitive/-insensitive or PP2A-sensitive/insensitive comparisons were excluded. For calculating a heat map directly comparing PP1c against PP2Ac, these fold changes were divided. […] Obtained p-values were adjusted for multiple testing using the method of Benjamini and Hochberg.
PP1c/PP2Ac-sensitive class I sites were divided into three classes as illustrated for PP1c in Supplementary Fig. 4c. […]

PP1c = target: T1, PP1c (Homo sapiens, UniProt P62136); test: Phosphoproteome dephosphorylation assay of HeLa Kyoto lysate with recombinant PP1c (TMT phosphoproteomics); assay type: biochemical; details: 1 µM recombinant phosphatase, 1 h at 30 °C, 20 nM Calyculin A, three replicates
T1 construct: His tag with TEV site (N, cleaved yes); intein (pTXB1) (C, cleaved yes); made in house; host or cells: E. coli BL21Star(DE3)pRARE
T1 sequence (P62136 whole entry): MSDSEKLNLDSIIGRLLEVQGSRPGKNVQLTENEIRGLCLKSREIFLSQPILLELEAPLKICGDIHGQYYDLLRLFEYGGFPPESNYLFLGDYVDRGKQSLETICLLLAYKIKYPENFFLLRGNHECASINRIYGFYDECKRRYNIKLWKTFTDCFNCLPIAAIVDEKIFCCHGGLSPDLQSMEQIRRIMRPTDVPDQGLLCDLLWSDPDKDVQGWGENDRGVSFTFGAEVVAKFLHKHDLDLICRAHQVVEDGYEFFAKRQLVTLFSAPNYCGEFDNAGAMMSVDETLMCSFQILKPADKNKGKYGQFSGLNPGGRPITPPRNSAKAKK
Protocol: as §1
Treated lysates were reduced (10 mM DTT, 30 °C, 30 min) and alkylated (50 mM chloroacetamide, room temperature, 30 min, in the dark), and then diluted to 1.3 M urea using 40 mM Tris-HCl (pH 7.6). […]

For “PP2Ac: His-tagged recombinant PPP2CA ΔL309, purchased from Cayman Chemical”, the “share of substrates specific to the phosphatase” value (PP1c/PP2Ac) was 24% and the “number of specific sequences (cluster size)” value (PP1c/PP2Ac) was 663 sequences.

In the case of “PP1c: recombinant catalytic subunit of PP1”, the “number of class I p-sites dephosphorylated by PP1” value (PP1c) is reported as 1967 p-sites, the “share of substrates specific to the phosphatase” value (PP1c/PP2Ac) is reported as 28% and the “number of specific sequences (cluster size)” value (PP1c/PP2Ac) is reported as 777 sequences.
